Like-named read-outs stand apart in the source and are kept apart here. Starred links: 1 amine or outer side, 2 acyl side, 3 side chain; linkers in the order of their positions; H or OH if unused. Non-standard residues stand in square brackets, D forms with d. Residues, ends and D or L forms follow the SMILES beside them. Groups on a side chain read outwards from the residue. *: point of attachment. Ala(pyrazol-1-yl) = N[C@@H](Cn1cccn1)C(=O)O; γGlu = O=C(O)[C@H](CCC(=O)[*:2])N[*:1]; Palmitoyl = CCCCCCCCCCCCCCCC(=O)*; Aib = CC(C)(N)C(=O)O
Assays:
human GLP-1R = target: T1, human GLP-1R (Homo sapiens, UniProt P43220); assay: GLP-1 receptor efficacy assay (cAMP formation, FlashPlate cAMP kit); type: cell-based; settings: HEK293 cells expressing human GLP-1R; cAMP formed, 15 min at 37° C.
T1 construct: expressed in transfected cells
T1 sequence (P43220 24-463): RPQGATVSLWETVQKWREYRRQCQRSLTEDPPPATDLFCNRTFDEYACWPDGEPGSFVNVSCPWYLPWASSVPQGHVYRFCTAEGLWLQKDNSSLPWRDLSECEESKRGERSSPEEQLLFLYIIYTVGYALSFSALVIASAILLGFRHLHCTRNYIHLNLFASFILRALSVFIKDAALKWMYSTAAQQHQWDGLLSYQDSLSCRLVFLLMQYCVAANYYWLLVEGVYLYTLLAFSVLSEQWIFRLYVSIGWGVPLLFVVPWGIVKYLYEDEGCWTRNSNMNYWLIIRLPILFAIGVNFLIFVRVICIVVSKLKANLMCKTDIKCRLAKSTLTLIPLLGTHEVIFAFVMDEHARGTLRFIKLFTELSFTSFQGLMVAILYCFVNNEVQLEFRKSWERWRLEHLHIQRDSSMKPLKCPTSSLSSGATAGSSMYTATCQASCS
Experimental: (§1) The 5′-end primers additionally encoded a near Kozak consensus sequence to ensure efficient translation.
(§2) 48 hr after transfection, cells were seeded for limited dilution cloning and selected with 1 mg/ml G418 in the culture medium.

human glucagon-R = target: T2, human glucagon-R (Homo sapiens, UniProt P47871); assay: Glucagon receptor efficacy assay (cAMP formation, FlashPlate cAMP kit); type: cell-based
T2 construct: expressed in transfected cells
T2 sequence (P47871 26-477): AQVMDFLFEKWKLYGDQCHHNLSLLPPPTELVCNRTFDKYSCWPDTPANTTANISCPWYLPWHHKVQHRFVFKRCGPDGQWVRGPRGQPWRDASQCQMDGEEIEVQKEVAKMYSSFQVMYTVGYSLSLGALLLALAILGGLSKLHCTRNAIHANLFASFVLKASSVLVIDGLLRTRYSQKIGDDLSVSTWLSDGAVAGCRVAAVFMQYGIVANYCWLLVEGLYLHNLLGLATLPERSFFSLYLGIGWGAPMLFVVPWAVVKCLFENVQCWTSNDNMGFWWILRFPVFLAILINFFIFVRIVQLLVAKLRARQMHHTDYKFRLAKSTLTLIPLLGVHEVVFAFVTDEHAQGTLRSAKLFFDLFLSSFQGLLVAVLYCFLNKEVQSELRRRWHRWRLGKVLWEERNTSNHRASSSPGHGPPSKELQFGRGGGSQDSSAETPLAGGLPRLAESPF
Experimental: as §1, §2

[1] = HEK293 cells expressing human glucagon-R; cAMP formed, 15 min at 37° C.; read-out: EC50 nM) GluR

Row | EC50 (human GLP-1R) [nM] | EC50 (human glucagon-R; [1]) [nM] | EC50 (human glucagon-R; earlier determination, replaced by redetermination in Table 1, read-out: EC50 GluR, earlier determined value) [nM] | SMILES
1 | 0.16 | 0.15 | – | CCCCCCCCCCCCCCCC(=O)N[C@@H](CCC(=O)NCCCC[C@H](NC(=O)[C@H](CO)NC(=O)[C@H](CC(=O)O)NC(=O)[C@H](CC(C)C)NC(=O)[C@H](Cc1ccc(O)cc1)NC(=O)[C@H](CCCCN)NC(=O)[C@H](CO)NC(=O)[C@H](Cc1ccc(O)cc1)NC(=O)[C@H](CC(=O)O)NC(=O)[C@H](CO)NC(=O)[C@@H](NC(=O)[C@H](Cc1ccccc1)NC(=O)[C@@H](NC(=O)CNC(=O)[C@H](Cc1c[nH]cn1)NC(=O)C(C)(C)NC(=O)[C@@H](N)Cc1c[nH]cn1)[C@@H](C)O)[C@@H](C)O)C(=O)N[C@@H](C)C(=O)N[C@@H](C)C(=O)N[C@@H](Cc1c[nH]cn1)C(=O)N[C@@H](CCC(=O)O)C(=O)N[C@@H](Cc1ccccc1)C(=O)N[C@H](C(=O)N[C@@H](CCC(=O)O)C(=O)N[C@@H](Cc1c[nH]c2ccccc12)C(=O)N[C@@H](CC(C)C)C(=O)N[C@@H](CC(C)C)C(=O)N[C@@H](CCC(=O)O)C(=O)N[C@@H](C)C(N)=O)C(C)C)C(=O)O [Compound 5] (H-H[Aib]HGTFTSDYSKYLDSK([γGlu-Palmitoyl])AAHEFVEWLLEA-NH2)
2 | – | 26 | – | CCCCCCCCCCCCCCCC(=O)N[C@@H](CCC(=O)NCCCC[C@H](NC(=O)[C@H](CO)NC(=O)[C@H](CC(=O)O)NC(=O)[C@H](CC(C)C)NC(=O)[C@H](Cc1ccc(O)cc1)NC(=O)[C@H](CCCCN)NC(=O)[C@H](CO)NC(=O)[C@H](Cc1ccc(O)cc1)NC(=O)[C@H](CC(=O)O)NC(=O)[C@H](CO)NC(=O)[C@@H](NC(=O)[C@H](Cc1ccccc1)NC(=O)[C@@H](NC(=O)CNC(=O)[C@H](CCC(=O)O)NC(=O)C(C)(C)NC(=O)[C@@H](N)Cc1c[nH]cn1)[C@@H](C)O)[C@@H](C)O)C(=O)N[C@@H](C)C(=O)N[C@@H](C)C(=O)N[C@@H](Cc1c[nH]cn1)C(=O)N[C@@H](CC(=O)O)C(=O)N[C@@H](Cc1ccccc1)C(=O)N[C@H](C(=O)N[C@@H](CCC(=O)O)C(=O)N[C@@H](Cc1c[nH]c2ccccc12)C(=O)N[C@@H](CC(C)C)C(=O)N[C@@H](CC(C)C)C(=O)N[C@@H](CO)C(=O)N[C@@H](C)C(N)=O)C(C)C)C(=O)O [Compound 7] (H-H[Aib]EGTFTSDYSKYLDSK([γGlu-Palmitoyl])AAHDFVEWLLSA-NH2)
3 | 0.09 | 0.15 | – | CCCCCCCCCCCCCCCC(=O)N[C@@H](CCC(=O)NCCCC[C@H](NC(=O)[C@H](CO)NC(=O)[C@H](CCC(=O)O)NC(=O)[C@H](CC(C)C)NC(=O)[C@H](Cc1ccc(O)cc1)NC(=O)[C@H](CCCCN)NC(=O)[C@H](CO)NC(=O)[C@H](Cc1ccc(O)cc1)NC(=O)[C@H](CC(=O)O)NC(=O)[C@H](CO)NC(=O)[C@@H](NC(=O)[C@H](Cc1ccccc1)NC(=O)[C@@H](NC(=O)CNC(=O)[C@H](Cc1c[nH]cn1)NC(=O)C(C)(C)NC(=O)[C@@H](N)Cc1c[nH]cn1)[C@@H](C)O)[C@@H](C)O)C(=O)N[C@@H](C)C(=O)N[C@@H](C)C(=O)N[C@@H](CCC(=O)O)C(=O)N[C@@H](CCC(=O)O)C(=O)N[C@@H](Cc1ccccc1)C(=O)N[C@H](C(=O)N[C@@H](CCC(=O)O)C(=O)N[C@@H](Cc1c[nH]c2ccccc12)C(=O)N[C@@H](CC(C)C)C(=O)N[C@@H](CC(C)C)C(=O)N[C@@H](CCC(=O)O)C(=O)N[C@@H](C)C(N)=O)C(C)C)C(=O)O [Compound 31] (H-H[Aib]HGTFTSDYSKYLESK([γGlu-Palmitoyl])AAEEFVEWLLEA-NH2)
4 | 0.16 | – | 3 | CCCCCCCCCCCCCCCC(=O)N[C@@H](CCC(=O)NCCCC[C@H](NC(=O)[C@H](CO)NC(=O)[C@H](CC(=O)O)NC(=O)[C@H](CC(C)C)NC(=O)[C@H](Cc1ccc(O)cc1)NC(=O)[C@H](CCCCN)NC(=O)[C@H](CO)NC(=O)[C@H](Cc1ccc(O)cc1)NC(=O)[C@H](CC(=O)O)NC(=O)[C@H](CO)NC(=O)[C@@H](NC(=O)[C@H](Cc1ccccc1)NC(=O)[C@@H](NC(=O)CNC(=O)[C@@H](NC(=O)C(C)(C)NC(=O)[C@@H](N)Cc1c[nH]cn1)[C@@H](C)CC)[C@@H](C)O)[C@@H](C)O)C(=O)N[C@@H](C)C(=O)N[C@@H](C)C(=O)N[C@@H](Cc1c[nH]cn1)C(=O)N[C@@H](CC(=O)O)C(=O)N[C@@H](Cc1ccccc1)C(=O)N[C@H](C(=O)N[C@@H](CCC(=O)O)C(=O)N[C@@H](Cc1c[nH]c2ccccc12)C(=O)N[C@@H](CC(C)C)C(=O)N[C@@H](CC(C)C)C(=O)N[C@@H](CO)C(=O)N[C@@H](C)C(N)=O)C(C)C)C(=O)O [Compound 19] (H-H[Aib]IGTFTSDYSKYLDSK([γGlu-Palmitoyl])AAHDFVEWLLSA-NH2)
5 | 0.09 | – | – | CCCCCCCCCCCCCCCC(=O)N[C@@H](CCC(=O)NCCCC[C@H](NC(=O)[C@H](CO)NC(=O)[C@H](CC(=O)O)NC(=O)[C@H](CC(C)C)NC(=O)[C@H](Cc1ccc(O)cc1)NC(=O)[C@H](CCCCN)NC(=O)[C@H](CO)NC(=O)[C@H](Cc1ccc(O)cc1)NC(=O)[C@H](CC(=O)O)NC(=O)[C@H](CO)NC(=O)[C@@H](NC(=O)[C@H](Cc1ccccc1)NC(=O)[C@@H](NC(=O)CNC(=O)[C@H](CO)NC(=O)C(C)(C)NC(=O)[C@@H](N)Cc1c[nH]cn1)[C@@H](C)O)[C@@H](C)O)C(=O)N[C@@H](C)C(=O)N[C@@H](C)C(=O)N[C@@H](Cc1c[nH]cn1)C(=O)N[C@@H](CC(=O)O)C(=O)N[C@@H](Cc1ccccc1)C(=O)N[C@H](C(=O)N[C@@H](CCC(=O)O)C(=O)N[C@@H](Cc1c[nH]c2ccccc12)C(=O)N[C@@H](CC(C)C)C(=O)N[C@@H](CC(C)C)C(=O)N[C@@H](CO)C(=O)N[C@@H](C)C(N)=O)C(C)C)C(=O)O [Compound 18] (H-H[Aib]SGTFTSDYSKYLDSK([γGlu-Palmitoyl])AAHDFVEWLLSA-NH2)
6 | 0.11 | – | – | CCCCCCCCCCCCCCCC(=O)N[C@@H](CCC(=O)NCCCC[C@H](NC(=O)[C@H](CO)NC(=O)[C@H](CC(=O)O)NC(=O)[C@H](CC(C)C)NC(=O)[C@H](Cc1ccc(O)cc1)NC(=O)[C@H](CCCCN)NC(=O)[C@H](CO)NC(=O)[C@H](Cc1ccc(O)cc1)NC(=O)[C@H](CC(=O)O)NC(=O)[C@H](CO)NC(=O)[C@@H](NC(=O)[C@H](Cc1ccccc1)NC(=O)[C@@H](NC(=O)CNC(=O)[C@H](Cn1cccn1)NC(=O)C(C)(C)NC(=O)[C@@H](N)Cc1c[nH]cn1)[C@@H](C)O)[C@@H](C)O)C(=O)N[C@@H](C)C(=O)N[C@@H](C)C(=O)N[C@@H](Cc1c[nH]cn1)C(=O)N[C@@H](CC(=O)O)C(=O)N[C@@H](Cc1ccccc1)C(=O)N[C@H](C(=O)N[C@@H](CCC(=O)O)C(=O)N[C@@H](Cc1c[nH]c2ccccc12)C(=O)N[C@@H](CC(C)C)C(=O)N[C@@H](CC(C)C)C(=O)N[C@@H](CO)C(=O)N[C@@H](C)C(N)=O)C(C)C)C(=O)O [Compound 28] (H-H[Aib][Ala(pyrazol-1-yl)]GTFTSDYSKYLDSK([γGlu-Palmitoyl])AAHDFVEWLLSA-NH2)
7 | – | 3 | – | CCCCCCCCCCCCCCCC(=O)N[C@@H](CCC(=O)NCCCC[C@H](NC(=O)[C@H](CO)NC(=O)[C@H](CC(=O)O)NC(=O)[C@H](CC(C)C)NC(=O)[C@H](Cc1ccc(O)cc1)NC(=O)[C@H](CCCCN)NC(=O)[C@H](CO)NC(=O)[C@H](Cc1ccc(O)cc1)NC(=O)[C@H](CC(=O)O)NC(=O)[C@H](CO)NC(=O)[C@@H](NC(=O)[C@H](Cc1ccccc1)NC(=O)[C@@H](NC(=O)[C@H](C)NC(=O)[C@H](CCC(N)=O)NC(=O)C(C)(C)NC(=O)[C@@H](N)Cc1c[nH]cn1)[C@@H](C)O)[C@@H](C)O)C(=O)N[C@@H](C)C(=O)N[C@@H](C)C(=O)N[C@@H](Cc1c[nH]cn1)C(=O)N[C@@H](CC(=O)O)C(=O)N[C@@H](Cc1ccccc1)C(=O)N[C@H](C(=O)N[C@@H](CCC(=O)O)C(=O)N[C@@H](Cc1c[nH]c2ccccc12)C(=O)N[C@@H](CC(C)C)C(=O)N[C@@H](CC(C)C)C(=O)N[C@@H](CO)C(=O)N[C@@H](C)C(N)=O)C(C)C)C(=O)O [Compound 8] (H-H[Aib]QATFTSDYSKYLDSK([γGlu-Palmitoyl])AAHDFVEWLLSA-NH2)
8 | – | 3 | – | CCCCCCCCCCCCCCCC(=O)N[C@@H](CCC(=O)NCCCC[C@H](NC(=O)[C@H](CO)NC(=O)[C@H](CC(=O)O)NC(=O)[C@H](CC(C)C)NC(=O)[C@H](Cc1ccc(O)cc1)NC(=O)[C@H](CCCCN)NC(=O)[C@H](CO)NC(=O)[C@H](Cc1ccc(O)cc1)NC(=O)[C@H](CC(=O)O)NC(=O)[C@H](CO)NC(=O)[C@@H](NC(=O)[C@H](Cc1ccccc1)NC(=O)[C@@H](NC(=O)CNC(=O)[C@@H](NC(=O)C(C)(C)NC(=O)[C@@H](N)Cc1c[nH]cn1)C(C)C)[C@@H](C)O)[C@@H](C)O)C(=O)N[C@@H](C)C(=O)N[C@@H](C)C(=O)N[C@@H](Cc1c[nH]cn1)C(=O)N[C@@H](CC(=O)O)C(=O)N[C@@H](Cc1ccccc1)C(=O)N[C@H](C(=O)N[C@@H](CCC(=O)O)C(=O)N[C@@H](Cc1c[nH]c2ccccc12)C(=O)N[C@@H](CC(C)C)C(=O)N[C@@H](CC(C)C)C(=O)N[C@@H](CO)C(=O)N[C@@H](C)C(N)=O)C(C)C)C(=O)O [Compound 16] (H-H[Aib]VGTFTSDYSKYLDSK([γGlu-Palmitoyl])AAHDFVEWLLSA-NH2)
9 | 0.09 | – | – | CCCCCCCCCCCCCCCC(=O)N[C@@H](CCC(=O)NCCCC[C@H](NC(=O)[C@H](CO)NC(=O)[C@H](CC(=O)O)NC(=O)[C@H](CC(C)C)NC(=O)[C@H](Cc1ccc(O)cc1)NC(=O)[C@H](CCCCN)NC(=O)[C@H](CO)NC(=O)[C@H](Cc1ccc(O)cc1)NC(=O)[C@H](CC(=O)O)NC(=O)[C@H](CO)NC(=O)[C@@H](NC(=O)[C@H](Cc1ccccc1)NC(=O)[C@@H](NC(=O)CNC(=O)[C@H](C)NC(=O)C(C)(C)NC(=O)[C@@H](N)Cc1c[nH]cn1)[C@@H](C)O)[C@@H](C)O)C(=O)N[C@@H](C)C(=O)N[C@@H](C)C(=O)N[C@@H](Cc1c[nH]cn1)C(=O)N[C@@H](CC(=O)O)C(=O)N[C@@H](Cc1ccccc1)C(=O)N[C@H](C(=O)N[C@@H](CCC(=O)O)C(=O)N[C@@H](Cc1c[nH]c2ccccc12)C(=O)N[C@@H](CC(C)C)C(=O)N[C@@H](CC(C)C)C(=O)N[C@@H](CO)C(=O)N[C@@H](C)C(N)=O)C(C)C)C(=O)O [Compound 17] (H-H[Aib]AGTFTSDYSKYLDSK([γGlu-Palmitoyl])AAHDFVEWLLSA-NH2)

From US9169310B2 (Zealand Pharma A/S, priority 2010, dated 2015)
